Results on 40 compounds are retold here after ChEMBL document CHEMBL2311456, “Synthesis and in vitro evaluation of potential anticancer activity of mono- and bis-1,2,3-triazole derivatives of bis-alkynes” (Eur J Med Chem, 2013).

In the first experiment the test system is B16. The experiment in a line: Ratio of propargyl amine IC50 to compound IC50 for mouse B16 cells after 48 hrs by MTT assay. Type of experiment: functional.
Conditions: not given
In the case of `C#CC(=O)Nc1cccc(C#C)c1`, the “Ratio IC50” value was found to be 127.

A further experiment relates to B16. Put plainly: Cytotoxicity against mouse B16 cells after 48 hrs by MTT assay. Type of experiment: functional, cell-based. As to conditions: B16, 48 h.
With `C#CCNC(=O)c1cn(CCOC(C)=O)nn1`, the IC50 was over 100 µM.
Still for that read-out and setting: to `O=C(Nc1ccc(-c2cn(Cc3ccccc3)nn2)cc1)c1cn(Cc2ccccc2)nn1` belongs over 100 µM; to `CCOC(=O)Cn1cc(-c2ccc(NC(=O)c3cn(Cc4ccccc4)nn3)cc2)nn1`, 36.3 µM; to `CC(=O)OCCn1cc(-c2ccc(NC(=O)c3cn(Cc4ccccc4)nn3)cc2)nn1`, 13.2 µM.
Same read-out and setting: under `CCOC(=O)Cn1cc(C(=O)Nc2ccc(-c3cn(CCOC(C)=O)nn3)cc2)nn1` stands over 100 µM; under `CC(=O)OCCn1cc(C(=O)Nc2ccc(-c3cn(Cc4ccccc4)nn3)cc2)nn1`, over 100 µM; under `CCOC(=O)Cn1cc(-c2ccc(NC(=O)c3cn(CCOC(C)=O)nn3)cc2)nn1`, over 100 µM.
On the same count and under the same terms, under `CC(=O)OCCn1cc(C(=O)Nc2ccc(-c3cn(CCOC(C)=O)nn3)cc2)nn1` stands over 100 µM; under `O=C(Nc1ccccc1)c1cn(Cc2ccccc2)nn1`, 93 µM.
In turn, `CCOC(=O)Cn1cc(C(=O)Nc2ccccc2)nn1` yielded an IC50 of over 100 µM.
`CC(=O)OCCn1cc(C(=O)Nc2ccccc2)nn1`: the IC50 was over 100 µM.
On the same count and under the same terms, under `C#Cc1cccc(NC(=O)c2cn(Cc3ccccc3)nn2)c1` stands 14.5 µM; under `C#Cc1cccc(NC(=O)c2cn(CC(=O)OCC)nn2)c1`, 91 µM; under `C#Cc1cccc(NC(=O)c2cn(CCOC(C)=O)nn2)c1`, 25.1 µM.
On the same count and under the same terms, to `C#Cc1ccc(NC(=O)c2cn(Cc3ccccc3)nn2)cc1` belongs over 100 µM.
On the same count and under the same terms, under `C#Cc1ccc(NC(=O)c2cn(CC(=O)OCC)nn2)cc1` stands over 100 µM.
As to `C#Cc1ccc(NC(=O)c2cn(CCOC(C)=O)nn2)cc1`, the IC50 worked out at 79 µM.
Take `O=C(NCc1cn(Cc2ccccc2)nn1)c1cn(Cc2ccccc2)nn1`: it took 0.3 µM to reach half-maximal inhibition (IC50).
Same read-out and setting: to `CCOC(=O)Cn1cc(CNC(=O)c2cn(Cc3ccccc3)nn2)nn1` belongs 35 µM.
`CC(=O)OCCn1cc(CNC(=O)c2cn(Cc3ccccc3)nn2)nn1` showed an IC50 of 28 µM.
Still for that read-out and setting: to `O=C(Cn1cc(C(=O)NCc2cn(Cc3ccccc3)nn2)nn1)OCc1ccccc1` belongs 22.4 µM; to `CCOC(=O)Cn1cc(CNC(=O)c2cn(CC(=O)OCc3ccccc3)nn2)nn1`, over 100 µM.
On the same count and under the same terms, under `CC(=O)OCCn1cc(CNC(=O)c2cn(CC(=O)OCc3ccccc3)nn2)nn1` stands over 100 µM; under `CC(=O)OCCn1cc(C(=O)NCc2cn(Cc3ccccc3)nn2)nn1`, over 100 µM.
Still for that read-out and setting: to `CCOC(=O)Cn1cc(CNC(=O)c2cn(CCOC(C)=O)nn2)nn1` belongs over 100 µM; to `CC(=O)OCCn1cc(CNC(=O)c2cn(CCOC(C)=O)nn2)nn1`, over 100 µM.
Turning to `O=C(Nc1cccc(-c2cn(Cc3ccccc3)nn2)c1)c1cn(Cc2ccccc2)nn1`, the IC50 turned out to be 4.5 µM.
Same read-out and setting: under `CCOC(=O)Cn1cc(-c2cccc(NC(=O)c3cn(Cc4ccccc4)nn3)c2)nn1` stands 21 µM.
Same read-out and setting: under `CC(=O)OCCn1cc(-c2cccc(NC(=O)c3cn(Cc4ccccc4)nn3)c2)nn1` stands 25.1 µM.
In turn, `CCOC(=O)Cn1cc(C(=O)Nc2cccc(-c3cn(Cc4ccccc4)nn3)c2)nn1` showed an IC50 of 20.4 µM.
On the same count and under the same terms, under `CCOC(=O)Cn1cc(C(=O)Nc2cccc(-c3cn(CC(=O)OCC)nn3)c2)nn1` stands over 100 µM; under `CCOC(=O)Cn1cc(C(=O)Nc2cccc(-c3cn(CCOC(C)=O)nn3)c2)nn1`, over 100 µM.
Still for that read-out and setting: to `CC(=O)OCCn1cc(C(=O)Nc2cccc(-c3cn(Cc4ccccc4)nn3)c2)nn1` belongs over 100 µM; to `CCOC(=O)Cn1cc(-c2cccc(NC(=O)c3cn(CCOC(C)=O)nn3)c2)nn1`, 63 µM.
With `CC(=O)OCCn1cc(C(=O)Nc2cccc(-c3cn(CCOC(C)=O)nn3)c2)nn1`, the IC50 is over 100 µM.
The same measure, in the same setting: to `C#CCNC(=O)C#C` belongs 38 µM; to `C#CC(=O)Nc1cccc(C#C)c1`, 0.3 µM; to `C#CC(=O)Nc1ccc(C#C)cc1`, 6.3 µM.
In turn, `C#CCNC(=O)c1cn(Cc2ccccc2)nn1` showed an IC50 of 65 µM.
For the compound `C#CCNC(=O)c1cn(CC(=O)OCc2ccccc2)nn1`, the IC50 was over 100 µM.
